Read-outs that look alike come from different tables or passages of the source.
How the values were obtained:
Type in all cases: in vivo
[1] = tested on: barnyardgrass (Echinochloa crus-galli); experiment: Test A pre-/postemergence plant response; settings: Echinochloa crus-galli, 240 h, read-out: Plant response rating, Barnyardgrass; for pest or weed control at 31 g/ha: 31 g ai/ha; for pest or weed control at 125 g/ha: 125 g ai/ha
How it was run: (§1)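 Ratings are visual, 0–100, where 100 means complete control and 0 no effect, taken roughly 10 days after treatment by comparison with untreated controls. Formulation: non-phytotoxic solvent mixture with surfactant.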

corn (Zea mays) = experiment: Test A pre-/postemergence plant response; settings: Zea mays, 240 h; for Corn plant response rating (crop injury, 0 = no effect, 100 = complete kill) at 31 g/ha: 31 g ai/ha; for Corn plant response rating (crop injury, 0 = no effect, 100 = complete kill) at 125 g/ha: 125 g ai/ha
How it was run: as §1

[2] = tested on: large crabgrass (Digitaria sanguinalis); experiment: Test A pre-/postemergence plant response; settings: Digitaria sanguinalis, 240 h, read-out: Plant response rating, Crabgrass, Large; for pest or weed control at 31 g/ha: 31 g ai/ha; for pest or weed control at 125 g/ha: 125 g ai/ha
How it was run: as §1

[3] = tested on: pigweed (Amaranthus retroflexus); experiment: Test A pre-/postemergence plant response; settings: Amaranthus retroflexus, 240 h, read-out: Plant response rating, Pigweed; for pest or weed control at 31 g/ha: 31 g ai/ha; for pest or weed control at 125 g/ha: 125 g ai/ha
How it was run: as §1

[4] = tested on: Italian ryegrass (Lolium multiflorum); experiment: Test B pre-/postemergence plant response; settings: for pest or weed control at 31 g/ha / pest or weed control at 62 g/ha: Lolium multiflorum, read-out: Plant response rating, Ryegrass, Italian; for pest or weed control at 31 g/ha: 31 g ai/ha; for pest or weed control at 62 g/ha: 62 g ai/ha, 100 complete control
How it was run: (§2)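 Preemergence and postemergence (plants 2-18 cm, 1- to 4-leaf stage) applications used test chemicals in a non-phytotoxic solvent with surfactant. Plants were held in a greenhouse 13 to 15 days, then rated visually against controls on a 0-100 scale (0 no effect, 100 complete control).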

[5] = tested on: bermudagrass (Cynodon dactylon); experiment: Test B pre-/postemergence plant response; settings: for pest or weed control at 31 g/ha: 31 g ai/ha; for pest or weed control at 62 g/ha: 62 g ai/ha, 100 complete control
How it was run: as §2

[6] = tested on: johnsongrass (Sorghum halepense); experiment: Test B pre-/postemergence plant response; settings: for pest or weed control at 31 g/ha / pest or weed control at 62 g/ha: Sorghum halepense, read-out: Plant response rating, Johnsongrass; for pest or weed control at 31 g/ha: 31 g ai/ha; for pest or weed control at 62 g/ha: 62 g ai/ha, 100 complete control
How it was run: as §2

[7] = tested on: canarygrass (Phalaris minor); experiment: Test B postemergence plant response; settings: for Plant response rating, Canarygrass: Postemergence
How it was run: (§3)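 Postemergence spray on 1- to 4-leaf plants (2–18 cm); greenhouse 13–15 d; visual rating vs controls, 0 = no effect, 100 = complete control; dash = not tested.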

[8] = tested on: chickweed (Stellaria media); experiment: Test B postemergence plant response; settings: for Plant response rating, Chickweed: Postemergence
How it was run: as §3

[9] = tested on: windgrass (Apera spica-venti); experiment: Test B postemergence plant response; settings: for Windgrass plant response rating: postemergence, 0-100 scale; for Plant response rating, Windgrass: Postemergence
How it was run: as §3

[10] = tested on: winter barley (Hordeum vulgare); experiment: Test B postemergence plant response; settings: for Plant response rating, Barley: Postemergence, scale 0 to 100, 0 no effect, 100 complete control
How it was run: as §3

[11] = post-emergence, Postemergence, 0 to 100 scale (0 no effect, 100 complete control)
[12] = post-emergence, Postemergence, 0 to 100 scale, 0 no effect, 100 complete control
[13] = pre-emergence, Preemergence, 0 to 100 scale, 0 is no effect, 100 is complete control
[14] = pre-emergence, Preemergence, 0 to 100 scale (0 no effect, 100 complete control)
[15] = 8 g ai/ha, postemergence, 0-100 scale
[16] = 16 g ai/ha, postemergence, 0-100 scale
[17] = post-emergence, Postemergence, scale 0 to 100
[18] = post-emergence, Postemergence, scale 0 to 100, 0 no effect
[19] = pre-emergence, Preemergence, scale 0 to 100 (0 no effect, 100 complete control)
[20] = pre-emergence, Preemergence, 0 to 100 scale, 0 no effect
[21] = Preemergence, 8 g ai/ha, scale 0 to 100 (0 no effect, 100 complete control)
[22] = Preemergence, 16 g ai/ha, scale 0 to 100
[23] = 62 g ai/ha, scale 0 to 100, 0 no effect, 100 complete control

## Cc1nn(C)c(=O)c(-c2nc(-c3ccc(Cl)cc3)sc2C)c1O [Compound 79, 4-[2-(4-chlorophenyl)-5-methyl-4-thiazolyl]-5-hydroxy-2,6-dimethyl-3(2H)-pyridazinone]
[1]; [11]
  pest or weed control at 31 g/ha: 0%
[1]; [12]
  pest or weed control at 125 g/ha: 50%
[1]; [13]
  pest or weed control at 31 g/ha: 0%
[1]; [14]
  pest or weed control at 125 g/ha: 100%
Corn (Zea mays); [11]
  Corn plant response rating (crop injury, 0 = no effect, 100 = complete kill) at 31 g/ha: 0%
Corn (Zea mays); [12]
  Corn plant response rating (crop injury, 0 = no effect, 100 = complete kill) at 125 g/ha: 30%
Corn (Zea mays); [13]
  Corn plant response rating (crop injury, 0 = no effect, 100 = complete kill) at 31 g/ha: 0%
Corn (Zea mays); [14]
  Corn plant response rating (crop injury, 0 = no effect, 100 = complete kill) at 125 g/ha: 20%
[2]; [11]
  pest or weed control at 31 g/ha: 30%
[2]; [12]
  pest or weed control at 125 g/ha: 50%
[2]; [13]
  pest or weed control at 31 g/ha: 10%
[2]; [14]
  pest or weed control at 125 g/ha: 100%
[3]; [11]
  pest or weed control at 31 g/ha: 0%
[3]; [12]
  pest or weed control at 125 g/ha: 0%
[3]; [13]
  pest or weed control at 31 g/ha: 0%
[3]; [14]
  pest or weed control at 125 g/ha: 0%
[4]; [15]
  Ryegrass, Italian plant response rating: 55
[4]; [16]
  Ryegrass, Italian plant response rating: 70
[4]; [17]
  pest or weed control at 31 g/ha: 80%
[4]; [18]
  pest or weed control at 62 g/ha: 90%
[4]; [19]
  pest or weed control at 31 g/ha: 100%
[4]; [20]
  pest or weed control at 62 g/ha: 100%
[4]; [21]
  Ryegrass, Italian plant response rating: 0
[4]; [22]
  Ryegrass, Italian plant response rating: 90
[5]; [15]
  Bermudagrass plant response rating: 70
[5]; Cynodon dactylon, post-emergence, Postemergence, 16 g ai/ha, scale 0 to 100, read-out: Plant response rating, Bermudagrass
  pest or weed control at 16 g/ha: 80%
[5]; Cynodon dactylon, post-emergence, Postemergence, scale 0 to 100, read-out: Plant response rating, Bermudagrass
  pest or weed control at 31 g/ha: 100%
[5]; Cynodon dactylon, post-emergence, Postemergence, scale 0 to 100, 0 no effect, read-out: Plant response rating, Bermudagrass
  pest or weed control at 62 g/ha: 100%
[5]; Cynodon dactylon, pre-emergence, Preemergence, scale 0 to 100 (0 no effect, 100 complete control), read-out: Plant response rating, Bermudagrass
  pest or weed control at 31 g/ha: 100%
[5]; Cynodon dactylon, pre-emergence, Preemergence, 0 to 100 scale, 0 no effect, read-out: Plant response rating, Bermudagrass
  pest or weed control at 62 g/ha: 100%
[5]; [21]
  Bermudagrass plant response rating: 90
[5]; Preemergence, 16 g ai/ha, scale 0 to 100 (0 no effect, 100 complete control)
  Bermudagrass plant response rating: 100
[6]; [15]
  Johnsongrass plant response rating: 85
[6]; [16]
  Johnsongrass plant response rating: 90
[6]; [21]
  Johnsongrass plant response rating: 65
[6]; [22]
  Johnsongrass plant response rating: 85
[6]; [17]
  pest or weed control at 31 g/ha: 100%
[6]; [18]
  pest or weed control at 62 g/ha: 100%
[6]; [19]
  pest or weed control at 31 g/ha: 100%
[6]; [20]
  pest or weed control at 62 g/ha: 100%
[7]; [15]
  Canarygrass plant response rating: 10
[7]; 16 g ai/ha, scale 0 to 100
  Plant response rating, Canarygrass: 55
[7]; 31 g ai/ha, scale 0 to 100
  Plant response rating, Canarygrass: 85
[7]; [23]
  Plant response rating, Canarygrass: 95
[8]; [15]
  Chickweed plant response rating: 0
[8]; 16 g ai/ha, scale 0 to 100
  Plant response rating, Chickweed: 0
[8]; 31 g ai/ha, scale 0 to 100
  Plant response rating, Chickweed: 0
[8]; [23]
  Plant response rating, Chickweed: 0
[9]; 8 g ai/ha
  Windgrass plant response rating: 0
[9]; 16 g ai/ha
  Windgrass plant response rating: 50
[9]; 31 g ai/ha, scale 0 to 100
  Plant response rating, Windgrass: 50
[9]; [23]
  Plant response rating, Windgrass: 70
[10]; [15]
  Barley plant response rating: 0
[10]; 16 g ai/ha
  Plant response rating, Barley: 10
[10]; 31 g ai/ha
  Plant response rating, Barley: 30
[10]; 62 g ai/ha
  Plant response rating, Barley: 40
